Experimental findings from patent publication US20250032454A1, “KDM1A INHIBITORS FOR THE TREATMENT OF DISEASE” (Imago Biosciences, Inc., priority 2021, published 2025) are described below.

In general, IC50 refers to the concentration at which inhibition is half-maximal. Read a low IC50 as greater potency.

The structures appear in SMILES notation.

The target in the experiment is LSD1 (Homo sapiens, UniProt O60341). Nature of the experiment: LSD1 fluorescence coupling enzyme assay (HRP/Amplex Red, H3(1-21)K4me2 peptide), 10-dose IC50. In kind it is biochemical. The settings on record: 10 μM histone H3(1-21)K4me2 peptide substrate, 3-fold serial dilution from 100 μM. The text has this: Assaying the inhibition of KDM1A can be determined in vitro, in cultured cells, and in animals. There are a variety of spectrophotometric methods to detect the results of demethylation of methylated lysines, viz., detecting the products of KDM1A demethylase oxidative activity on a peptide fragment of at least 18 amino acids representing the N-terminus of the histone H3 substrate that contains a monomethyl at the fourth lysine residue. Hydrogen peroxide, one product of the KDM1A demethylase reaction, reacts with horseradish peroxidase and dihydroxyphenoxazine (ADHP) to produce the fluorescent compound resorufin (excitation=530-560 nm: emission=590 nm). The KDM1A demethylase enzyme activity can be obtained from mammalian cells or tissues expressing KDM1A from an endogenous or recombinant gene and purified or assayed from a whole cell extract. These methods can be used to determine the concentration of the disclosed compounds can inhibit fifty percent of the enzyme activity (IC50).
Alternatively, the production of H2O2 during the KDM1A reaction can be detected fluometrically. In this system, the production of H2O2 is detected in the HDM assay buffer after exposure to substrate, co-factor and enzyme using ADHP (10-Acetyl-3, 7-dihydroxyphenoxazine) as a fluorogenic substrate for horse radish peroxidase (HRP). […] The florescent product is resorufin. Sensitivity can be as low as 10-15 M of target protein. The signal is read using a fluorescence microplate reader at excitation and emission wavelengths of 530-560 nm and 590 nm, respectively.
Compounds were tested in a 10-dose IC50 mode fluorescence coupling enzyme assay with 3-fold serial dilution in duplicate starting at 100 μM. The production of FAD-dependent H2O2 as a result of demethylase activity of LSD1 on 10 μM histone H3(1-21)K4me2 peptide substrate was measured by coupling with HRP and Amplex Red to yield resorufin (fluorescence measured at Ex/Em=535/590 nm on EnVision, Perkin Elmer).

`CN1CCN(c2ccc(-n3nc(NC[C@H]4CCC[C@H](N)C4)cc3-c3ccc(C#N)c(F)c3)cc2)CC1=O` [Example 105, 4-(3-((((1S,3S)-3-aminocyclohexyl)methyl)amino)-1-(4-(4-methyl-3-oxopiperazin-1-yl)phenyl)-1H-pyrazol-5-yl)-2-fluorobenzonitrile] returned a half-maximal inhibitory concentration (IC50) of 1000 to 10000 nM.

Take `N#Cc1ccc(-c2cc(NC[C@@H]3CCCNCC3)nn2-c2ccc(N3CCS(=O)(=O)CC3)cc2F)cc1F` [Example 106, (R)-4-(3-((azepan-4-ylmethyl)amino)-1-(4-(1,1-dioxidothiomorpholino)-2-fluorophenyl)-1H-pyrazol-5-yl)-2-fluorobenzonitrile]: the IC50 is under 500 nM.

Molecule `N#Cc1ccc(-c2cc(NCC3CCCNCC3)nn2-c2ccc(N3CCS(=O)(=O)CC3)cc2F)cc1F` (centres unmarked) [Example 107, 4-(3-((azepan-4-ylmethyl)amino)-1-(4-(1,1-dioxidothiomorpholino)-2-fluorophenyl)-1H-pyrazol-5-yl)-2-fluorobenzonitrile] registered a concentration for half-maximal inhibition (IC50) of under 500 nM.

Turning to `N#Cc1ccc(-c2cc(NCC3CNCCO3)nn2-c2ccc(N3CCS(=O)(=O)CC3)cc2F)cc1F` (centres unmarked) [Example 108, 4-(1-(4-(1,1-dioxidothiomorpholino)-2-fluorophenyl)-3-((morpholin-2-ylmethyl)amino)-1H-pyrazol-5-yl)-2-fluorobenzonitrile 2,2,2-trifluoroacetate], the IC50 is under 500 nM.

Regarding `CN1CCN(c2ccc(-n3nc(NC[C@H]4CCC[C@H](N)C4)cc3-c3ccc(C#N)c(F)c3)c(F)c2)CC1=O` [Example 109, 4-(3-((((1S,3S)-3-aminocyclohexyl)methyl)amino)-1-(2-fluoro-4-(4-methyl-3-oxopiperazin-1-yl)phenyl)-1H-pyrazol-5-yl)-2-fluorobenzonitrile], the IC50 is under 500 nM.

For the molecule `N#Cc1ccc(-c2cc(NCC3CCCNCC3)nn2-c2ccc(N3CCS(=O)(=O)CC3)c(F)c2)cc1F` (centres unmarked) [Example 110, 4-(3-((azepan-4-ylmethyl)amino)-1-(4-(1,1-dioxidothiomorpholino)-3-fluorophenyl)-1H-pyrazol-5-yl)-2-fluorobenzonitrile 2,2,2-trifluoroacetate], the IC50 was under 500 nM.

As to `N#Cc1ccc(-c2cc(NC[C@@H]3CCCNCC3)nn2-c2ccc(N3CCS(=O)(=O)CC3)c(F)c2)cc1F` [Example 111, (R)-4-(3-((azepan-4-ylmethyl)amino)-1-(4-(1,1-dioxidothiomorpholino)-3-fluorophenyl)-1H-pyrazol-5-yl)-2-fluorobenzonitrile 2,2,2-trifluoroacetate], the half-maximal inhibitory concentration (IC50) is under 500 nM.

In turn, `COc1cc(N2CCS(=O)(=O)CC2)ccc1-n1nc(NC[C@H]2CCCNCC2)cc1-c1ccc(C#N)c(F)c1` [Example 112, (S)-4-(3-((azepan-4-ylmethyl)amino)-1-(4-(1,1-dioxidothiomorpholino)-2-methoxyphenyl)-1H-pyrazol-5-yl)-2-fluorobenzonitrile 2,2,2-trifluoroacetate] returned a half-inhibitory concentration (IC50) of under 500 nM.

`COc1cc(N2CCS(=O)(=O)CC2)ccc1-n1nc(NC[C@@H]2CCCNCC2)cc1-c1ccc(C#N)c(F)c1` [Example 113, (R)-4-(3-((azepan-4-ylmethyl)amino)-1-(4-(1,1-dioxidothiomorpholino)-2-methoxyphenyl)-1H-pyrazol-5-yl)-2-fluorobenzonitrile 2,2,2-trifluoroacetate]: the concentration for half-maximal inhibition (IC50) was under 500 nM.

Regarding `COc1cc(N2CCC(OC)CC2)ccc1-n1nc(NC[C@H]2CCC[C@H](N)C2)cc1-c1ccc(C#N)c(F)c1` [Example 114, 4-(3-((((1S,3S)-3-aminocyclohexyl)methyl)amino)-1-(2-methoxy-4-(4-methoxypiperidin-1-yl)phenyl)-1H-pyrazol-5-yl)-2-fluorobenzonitrile 2,2,2-trifluoroacetate], the half-inhibitory concentration (IC50) was under 500 nM.

Consider `COc1cc(N2CCC(C)(O)CC2)ccc1-n1nc(NC[C@H]2CCC[C@H](N)C2)cc1-c1ccc(C#N)c(F)c1` [Example 115, 4-(3-((((1S,3S)-3-aminocyclohexyl)methyl)amino)-1-(4-(4-hydroxy-4-methylpiperidin-1-yl)-2-methoxyphenyl)-1H-pyrazol-5-yl)-2-fluorobenzonitrile 2,2,2-trifluoroacetate], for which the IC50 was 1000 to 10000 nM.

Molecule `CC1(O)CCN(c2ccc(-n3nc(NC[C@H]4CCC[C@H](N)C4)cc3-c3ccc(C#N)c(F)c3)c(F)c2)CC1` [Example 116, 4-(3-((((1S,3S)-3-aminocyclohexyl)methyl)amino)-1-(2-fluoro-4-(4-hydroxy-4-methylpiperidin-1-yl)phenyl)-1H-pyrazol-5-yl)-2-fluorobenzonitrile 2,2,2-trifluoroacetate] displayed an IC50 of under 500 nM.

`COc1cc(N2CCN(C)C(=O)C2)ccc1-n1nc(NC[C@H]2CCC[C@H](N)C2)cc1-c1ccc(C#N)c(F)c1` [Example 117, 4-(3-((((1S,3S)-3-aminocyclohexyl)methyl)amino)-1-(2-methoxy-4-(4-methyl-3-oxopiperazin-1-yl)phenyl)-1H-pyrazol-5-yl)-2-fluorobenzonitrile] yielded a half-inhibitory concentration (IC50) of under 500 nM.

`COC1CCN(c2cccc(-n3nc(NC[C@H]4CCC[C@H](N)C4)cc3-c3ccc(C#N)c(F)c3)c2)CC1` [Example 118, 4-(3-((((1S,3S)-3-aminocyclohexyl)methyl)amino)-1-(3-(4-methoxypiperidin-1-yl)phenyl)-1H-pyrazol-5-yl)-2-fluorobenzonitrile 2,2,2-trifluoroacetate]: the IC50 was 1000 to 10000 nM.

Take `N#Cc1ccc(-c2cc(NC[C@H]3CCC[C@H](N)C3)nn2-c2ccc3c(c2)NCCO3)cc1F` [Example 119, 4-(3-((((1S,3S)-3-aminocyclohexyl)methyl)amino)-1-(3,4-dihydro-2H-benzo[b][1,4]oxazin-6-yl)-1H-pyrazol-5-yl)-2-fluorobenzonitrile 2,2,2-trifluoroacetate]: the concentration for half-maximal inhibition (IC50) was under 500 nM.

The molecule `COC1CCN(c2ccc(-n3nc(NC[C@H]4CCC[C@H](N)C4)cc3-c3ccc(C#N)c(F)c3)nc2)CC1` [Example 120, 4-(3-((((1S,3S)-3-aminocyclohexyl)methyl)amino)-1-(5-(4-methoxypiperidin-1-yl)pyridin-2-yl)-1H-pyrazol-5-yl)-2-fluorobenzonitrile 2,2,2-trifluoroacetate] gave a half-maximal inhibitory concentration (IC50) of under 500 nM.

Turning to `N#Cc1ccc(-c2cc(NCC34CCN(CC3)CC4)nn2-c2ccc(N3CC4CC3CS4(=O)=O)cc2)cc1F` (centres unmarked) [Example 121, 4-(1-(4-(2,2-Dioxido-2-thia-5-azabicyclo[2.2.1]heptan-5-yl)phenyl)-3-((quinuclidin-4-ylmethyl)amino)-1H-pyrazol-5-yl)-2-fluorobenzonitrile 2,2,2-trifluoroacetate], the half-maximal inhibitory concentration (IC50) was under 500 nM.

`CC(C)Oc1cc(N2CCS(=O)(=O)CC2)ccc1-n1nc(NCC23CCN(CC2)CC3)cc1-c1ccc(C#N)c(F)c1` [Example 122, 4-(1-(4-(1,1-Dioxidothiomorpholino)-2-isopropoxyphenyl)-3-((quinuclidin-4-ylmethyl)amino)-1H-pyrazol-5-yl)-2-fluorobenzonitrile 2,2,2-trifluoroacetate] returned an IC50 of 1000 to 10000 nM.

`N#Cc1ccc(-c2cc(NCC34CCN(CC3)CC4)nn2-c2ccc3c(c2)NCCO3)cc1F` [Example 123, 4-(1-(3,4-Dihydro-2H-benzo[b][1,4]oxazin-6-yl)-3-((quinuclidin-4-ylmethyl)amino)-1H-pyrazol-5-yl)-2-fluorobenzonitrile 2,2,2-trifluoroacetate] registered a 50% inhibitory concentration (IC50) of under 500 nM.

`COC1CCN(c2ccc(-n3nc(NCC45CCN(CC4)CC5)cc3-c3ccc(C#N)c(F)c3)cc2)CC1` [Example 124, 2-Fluoro-4-(1-(4-(4-methoxypiperidin-1-yl)phenyl)-3-((quinuclidin-4-ylmethyl)amino)-1H-pyrazol-5-yl)benzo-nitrile 2,2,2-trifluoroacetate] displayed a half-maximal inhibitory concentration (IC50) of under 500 nM.

`COC1(C)CCN(c2ccc(-n3nc(NCC45CCN(CC4)CC5)cc3-c3ccc(C#N)c(F)c3)cc2)CC1` [Example 125, 2-Fluoro-4-(1-(4-(4-methoxy-4-methylpiperidin-1-yl)phenyl)-3-((quinuclidin-4-ylmethyl)amino)-1H-pyrazol-5-yl)benzonitrile 2,2,2-trifluoroacetate] gave a 50% inhibitory concentration (IC50) of under 500 nM.

In turn, `COc1cc(N2CCS(=O)(=O)CC2)ccc1-n1nc(NCC23CCN(CC2)CC3)cc1-c1ccc(C#N)c(F)c1` [Example 126, 4-(1-(4-(1,1-Dioxidothiomorpholino)-2-methoxyphenyl)-3-((quinuclidin-4-ylmethyl)amino)-1H-pyrazol-5-yl)-2-fluorobenzonitrile 2,2,2-trifluoroacetate] yielded a 50% inhibitory concentration (IC50) of under 500 nM.

With `CN1CCN(c2ccc(-n3nc(NC[C@H]4CCC[C@H](NC(=N)N)C4)cc3-c3ccc(C#N)c(F)c3)cc2)CC1` [Example 127, 1-((1S,3S)-3-(((5-(4-cyano-3-fluorophenyl)-1-(4-(4-methylpiperazin-1-yl)phenyl)-1H-pyrazol-3-yl)amino)methyl)cyclohexyl)guanidine 2,2,2-trifluoroacetate], the concentration for half-maximal inhibition (IC50) is under 500 nM.
